Laboratory results published in US20230312576A1, “4-(7H-PYRROLO[2,3-D]PYRIMIDIN-4-YL)-3,6-DIHYDROPYRIDINE-1-(2H)-CARBOXAMIDE DERIVATIVES AS LIMK AND/OR ROCK KINASES INHIBITORS FOR USE IN THE TREATMENT OF CANCER” (CENTRE NATIONAL DE LA RECHERCHE SCIENTIFIQUE, priority 2020, published 2023).
Read-outs that look alike come from different tables or passages of the source.

How the values were obtained:
ROCK2 = ROCK2 (Homo sapiens (Human), UniProt O75116); assay: Z'Lyte assay, ROCK2 inhibition at a single concentration; type: biochemical; conditions: read-out: % inhibition (ROCK2) 1 uM, 1 uM
U2OS cells [1] = assay: Microtubule dynamics by visualizing mitotic spindles; type: cell-based; conditions: 2.5 μM, 24 hours
[2] = tested on: cofilin phosphorylation, MPNST90-8 cells; assay: Cofilin phosphorylation by Western Blot in MPNST90-8 cells; type: cell-based; conditions: read-out: % inhibition Cofilin phosphorylation MPNST90-8 cells treated 2 h with 25 uM of inhibitor, MPNST90-8 cells, 25 uM
LIMK1 = LIMK1 (Homo sapiens (Human), UniProt P53667); assay: Lanthascreen Eu binding assay (TR-FRET), inhibition of LIMK1; conditions: Lanthascreen Eu binding assay
LIMK2 = LIMK2 (Homo sapiens (Human), UniProt P53671); assay: Lanthascreen Eu binding assay (TR-FRET), inhibition of LIMK2; conditions: Lanthascreen Eu binding assay
U2OS cells [3] = assay: Wound-healing migration assay; type: cell-based; conditions: 2.5 μM, 24 h
[4] = tested on: cofilin phosphorylation, HeLa cells; assay: Cofilin phosphorylation by Western Blot (anti-phospho-Ser3-cofilin) in HeLa cells; type: cell-based; conditions: Homo sapiens, 2 h
[5] = tested on: cofilin phosphorylation, MPNST88-14 cells; assay: Cofilin phosphorylation by Western Blot in MPNST88-14 cells; type: cell-based; conditions: read-out: % inhibition Cofilin phosphorylation MPNST88-14 cells treated 2 h with 25 uM of inhibitor, MPNST88-14 cells, 25 uM
ROCK1 = ROCK1 (Homo sapiens (Human), UniProt Q13464); assay: Z'Lyte assay, ROCK1 inhibition at a single concentration; type: biochemical; conditions: read-out: % inhibition (ROCK1) 1 uM, 1 uM
[6] = tested on: SOD1-G93A transgenic mice; assay: In vivo assay on a mouse model of ALS; conditions: 10 mg/Kg intraperitoneal, 2 times a week from week 8
MPNST cell line = conditions: published data; cited from earlier work
HeLa cells = assay: Cytotoxicity, CellTiter-Glo Luminescent Cell Viability assay, HeLa; type: cell-based; conditions: 48 hours, read-out: EC50 (inhibitor concentration corresponding to half of live cells)
LIMK1 and LIMK2 = assay: Lanthascreen Eu binding assay, Ki without LIMK isoform; conditions: LIMK isoform not stated
[7] = HeLa, read-out: % inhibition of cofilin phosphorylation in HeLa cells (treatment 2 h, at 25 μM), Table 2, normalized to the control condition DMSO
[8] = read-out: % inhibition Cofilin phosphorylation HeLa cells treated 2 h with 25 uM of inhibitor, HeLa cells, 25 uM

Sequence of ROCK2 (O75116 whole entry): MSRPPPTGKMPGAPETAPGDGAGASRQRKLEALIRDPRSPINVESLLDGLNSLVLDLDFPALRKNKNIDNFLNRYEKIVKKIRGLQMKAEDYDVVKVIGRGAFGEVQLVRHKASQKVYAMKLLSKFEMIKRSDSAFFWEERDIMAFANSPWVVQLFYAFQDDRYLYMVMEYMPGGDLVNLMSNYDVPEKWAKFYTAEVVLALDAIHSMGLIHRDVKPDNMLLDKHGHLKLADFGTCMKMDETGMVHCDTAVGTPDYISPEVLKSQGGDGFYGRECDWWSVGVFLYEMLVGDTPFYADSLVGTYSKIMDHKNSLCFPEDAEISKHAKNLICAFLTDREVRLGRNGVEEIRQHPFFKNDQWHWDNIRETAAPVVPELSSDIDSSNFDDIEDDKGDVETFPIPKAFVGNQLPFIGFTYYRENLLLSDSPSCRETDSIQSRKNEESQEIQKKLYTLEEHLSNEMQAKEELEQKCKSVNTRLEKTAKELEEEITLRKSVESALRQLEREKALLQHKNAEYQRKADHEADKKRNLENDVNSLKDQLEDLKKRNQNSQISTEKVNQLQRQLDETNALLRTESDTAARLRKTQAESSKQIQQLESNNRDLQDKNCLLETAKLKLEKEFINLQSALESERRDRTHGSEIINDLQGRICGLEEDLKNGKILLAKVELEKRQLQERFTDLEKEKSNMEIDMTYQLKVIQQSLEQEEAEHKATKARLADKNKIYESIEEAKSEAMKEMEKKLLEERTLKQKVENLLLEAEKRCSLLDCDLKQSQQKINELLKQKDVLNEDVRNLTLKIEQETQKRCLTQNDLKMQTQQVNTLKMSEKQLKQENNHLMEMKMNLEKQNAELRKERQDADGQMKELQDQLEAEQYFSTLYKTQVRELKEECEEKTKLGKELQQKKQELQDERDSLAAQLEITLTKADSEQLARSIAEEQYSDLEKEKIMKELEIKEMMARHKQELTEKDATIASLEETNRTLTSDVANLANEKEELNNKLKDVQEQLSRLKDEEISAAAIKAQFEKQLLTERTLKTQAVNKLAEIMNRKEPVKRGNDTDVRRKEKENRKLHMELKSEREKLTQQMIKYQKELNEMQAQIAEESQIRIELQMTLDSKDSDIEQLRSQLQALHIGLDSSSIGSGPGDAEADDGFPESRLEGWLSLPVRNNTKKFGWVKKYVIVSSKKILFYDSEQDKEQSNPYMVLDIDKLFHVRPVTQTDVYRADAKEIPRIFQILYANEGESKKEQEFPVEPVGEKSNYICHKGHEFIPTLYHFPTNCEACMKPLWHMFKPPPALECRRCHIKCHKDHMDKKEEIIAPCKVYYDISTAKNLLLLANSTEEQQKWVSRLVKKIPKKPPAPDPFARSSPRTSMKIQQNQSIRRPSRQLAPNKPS
Sequence of LIMK2 (P53671 whole entry): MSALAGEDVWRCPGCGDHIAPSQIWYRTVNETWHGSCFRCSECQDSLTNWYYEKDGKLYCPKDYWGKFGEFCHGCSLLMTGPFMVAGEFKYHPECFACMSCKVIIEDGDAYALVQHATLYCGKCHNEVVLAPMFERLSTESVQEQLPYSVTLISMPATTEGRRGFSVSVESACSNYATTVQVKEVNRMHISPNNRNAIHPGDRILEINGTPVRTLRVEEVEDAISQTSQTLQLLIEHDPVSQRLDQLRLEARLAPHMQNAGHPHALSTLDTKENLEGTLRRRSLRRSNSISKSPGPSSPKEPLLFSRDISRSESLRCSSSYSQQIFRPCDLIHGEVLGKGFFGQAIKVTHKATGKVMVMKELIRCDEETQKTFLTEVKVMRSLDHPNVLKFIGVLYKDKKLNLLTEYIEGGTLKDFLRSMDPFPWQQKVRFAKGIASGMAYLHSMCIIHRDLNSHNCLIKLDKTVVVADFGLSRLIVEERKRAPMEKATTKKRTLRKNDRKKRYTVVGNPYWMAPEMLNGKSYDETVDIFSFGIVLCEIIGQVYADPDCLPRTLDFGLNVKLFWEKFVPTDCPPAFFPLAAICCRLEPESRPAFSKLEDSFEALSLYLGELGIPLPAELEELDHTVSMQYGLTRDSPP
Sequence of LIMK1 (P53667 whole entry): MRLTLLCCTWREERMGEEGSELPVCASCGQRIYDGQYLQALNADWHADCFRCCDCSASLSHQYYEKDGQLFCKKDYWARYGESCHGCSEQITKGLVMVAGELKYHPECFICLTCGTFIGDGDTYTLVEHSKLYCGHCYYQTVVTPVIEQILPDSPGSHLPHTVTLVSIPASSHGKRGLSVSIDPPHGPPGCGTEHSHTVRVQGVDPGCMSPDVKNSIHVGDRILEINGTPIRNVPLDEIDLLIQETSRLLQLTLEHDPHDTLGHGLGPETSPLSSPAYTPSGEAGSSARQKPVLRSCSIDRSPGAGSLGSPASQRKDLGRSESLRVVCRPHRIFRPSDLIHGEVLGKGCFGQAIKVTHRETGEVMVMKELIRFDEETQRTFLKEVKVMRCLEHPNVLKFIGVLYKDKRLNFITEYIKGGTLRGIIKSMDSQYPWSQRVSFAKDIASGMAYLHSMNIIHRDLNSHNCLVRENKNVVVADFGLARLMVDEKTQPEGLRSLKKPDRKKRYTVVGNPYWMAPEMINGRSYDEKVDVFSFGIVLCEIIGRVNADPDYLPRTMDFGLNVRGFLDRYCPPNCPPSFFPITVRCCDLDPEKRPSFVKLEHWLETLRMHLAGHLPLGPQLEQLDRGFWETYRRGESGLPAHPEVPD
Sequence of ROCK1 (Q13464 whole entry): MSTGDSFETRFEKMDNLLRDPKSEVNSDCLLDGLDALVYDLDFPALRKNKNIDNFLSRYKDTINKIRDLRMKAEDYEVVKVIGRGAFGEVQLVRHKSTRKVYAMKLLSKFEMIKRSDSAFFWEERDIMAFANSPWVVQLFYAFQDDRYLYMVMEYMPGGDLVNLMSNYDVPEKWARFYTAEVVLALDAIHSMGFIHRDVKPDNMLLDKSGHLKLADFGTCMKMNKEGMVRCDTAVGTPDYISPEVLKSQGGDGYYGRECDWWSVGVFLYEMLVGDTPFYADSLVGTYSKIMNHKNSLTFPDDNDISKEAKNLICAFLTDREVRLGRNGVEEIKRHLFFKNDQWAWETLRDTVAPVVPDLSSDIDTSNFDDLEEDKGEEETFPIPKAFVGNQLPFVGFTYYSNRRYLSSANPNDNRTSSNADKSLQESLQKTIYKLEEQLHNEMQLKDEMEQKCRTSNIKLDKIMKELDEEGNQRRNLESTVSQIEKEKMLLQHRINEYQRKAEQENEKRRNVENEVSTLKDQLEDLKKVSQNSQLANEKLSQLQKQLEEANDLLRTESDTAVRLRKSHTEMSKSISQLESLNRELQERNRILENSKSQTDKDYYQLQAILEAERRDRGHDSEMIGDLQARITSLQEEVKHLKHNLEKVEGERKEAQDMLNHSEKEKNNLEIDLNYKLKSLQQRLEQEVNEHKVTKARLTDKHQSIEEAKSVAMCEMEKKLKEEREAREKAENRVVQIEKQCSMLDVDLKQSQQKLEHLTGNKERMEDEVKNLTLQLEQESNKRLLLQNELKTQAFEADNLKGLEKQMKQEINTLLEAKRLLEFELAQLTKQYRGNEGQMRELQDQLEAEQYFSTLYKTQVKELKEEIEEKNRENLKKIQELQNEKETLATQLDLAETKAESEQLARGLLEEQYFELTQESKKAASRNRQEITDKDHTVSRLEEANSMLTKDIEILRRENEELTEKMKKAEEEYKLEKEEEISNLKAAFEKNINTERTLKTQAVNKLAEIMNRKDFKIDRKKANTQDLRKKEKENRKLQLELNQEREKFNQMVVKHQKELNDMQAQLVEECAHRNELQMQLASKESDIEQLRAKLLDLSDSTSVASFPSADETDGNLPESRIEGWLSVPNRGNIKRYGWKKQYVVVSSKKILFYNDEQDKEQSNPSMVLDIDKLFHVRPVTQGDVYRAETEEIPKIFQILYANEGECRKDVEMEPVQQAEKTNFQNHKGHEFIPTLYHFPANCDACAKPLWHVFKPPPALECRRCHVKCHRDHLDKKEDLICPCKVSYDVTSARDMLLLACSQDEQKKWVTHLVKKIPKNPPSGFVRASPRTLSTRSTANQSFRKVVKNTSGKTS

| Compound | inhibition at 1 µM (ROCK2) [%] | inhibition at 25 µM [2] [%] | Ki (LIMK1) [nM] | Ki (LIMK2) [nM] | inhibition at 25 µM [4, 7] [%] | inhibition at 25 µM [4, 8] [%] | inhibition at 25 µM [5] [%] | inhibition at 1 µM (ROCK1) [%] | further results |
| --- | --- | --- | --- | --- | --- | --- | --- | --- | --- |
| Cc1c[nH]c2ncnc(C3=CCN(C(=O)Nc4cccc(Oc5ccccc5)c4)CC3)c12 [Compound 15, 4-(5-Methyl-7H-pyrrolo[2,3-d]pyrimidin-4-yl)-N-(3-phenoxy-phenyl)-3,6-dihydropyridine-1(2H)-carboxamide] | 24 | 83.2 | 19.4 | 14.4 | 92.1 | 92.1 | 78.6 | 44 | effects on microtubule dynamics (mitotic spindles) (U2OS cells [1]): strong effects on microtubule dynamics; inhibition of U2OS cell migration upon scratch (U2OS cells [3]): particularly efficient |
| Cc1c[nH]c2ncnc(C3=CC(C)N(C(=O)Nc4cccc(F)c4)C(C)C3)c12 (stereo not drawn) [Compound 57, N-(3-Fluorophenyl)-2,6-dimethyl-4-(5-methyl-7H-pyrrolo[2,3-d]pyrimidin-4-yl)-3,6-dihydropyridine-1(2H)-carboxamide] | 36 | 93.3 | 46.6 | 103 | 90.3 | 90.3 | 81 | 59 |  |
| O=C(Nc1cccc(F)c1)N1CC=C(c2ncnc3[nH]c4c(c23)CCC4)CC1 [Compound 110, N-(3-Fluorophenyl)-4-(5,6,7,8-tetrahydrocyclopenta[4,5]pyrrolo[2,3-d]pyrimidin-4-yl)-3,6-dihydropyridine-1(2H)-carboxamide] | 9 |  | 5 | 41 | 79 | 79 |  | 3 | later development of the disease phenotype and endpoint of the disease (survival) [6]: do not observed improvement; loss of weight [6]: significant effect on delaying; onset of motor symptoms (early Neuroscore stages and first time decay in the rotarod test) [6]: significant effect on delaying |
| O=C(Nc1cccc(Oc2ccccc2)c1)N1CC=C(c2ncnc3[nH]c4c(c23)CCC4)CC1 [Compound 125, N-(3-Phenoxyphenyl)-4-(5,6,7,8-tetrahydrocyclopenta[4,5]pyrrolo[2,3-d]pyrimidin-4-yl)-3,6-dihydropyridine-1(2H)-carboxamide] | -2 | 76.1 | 29 | 28.5 | 81.4 | 81.4 | 80.8 | 10 |  |
| Cc1cc(C(=O)Nc2cccc(C(=O)Nc3cccc(C(F)(F)F)c3)c2)on1 [Compound T56-LIMKi] |  |  |  |  |  |  |  |  | EC50 (MPNST cell line): ~20000 nM |
| CC(C)C(=O)Nc1ncc(-c2cc(C(F)F)nn2-c2c(Cl)cccc2Cl)s1 [LIMKi3] |  |  |  |  |  |  |  |  | EC50 (HeLa cells): 9000 nM |
| Cc1c[nH]c2ncnc(N3CCC(CN)(C(=O)Nc4cccc(OC(=O)N(C)C)c4)CC3)c12 [LX7101, reference compound] |  |  |  |  | 85.1 |  |  |  | Ki (LIMK1 and LIMK2): 3.9 nM |
